Values after ≈ are worked out from the molar mass of the structure shown.
What was measured:
[1] = tested on: HT29-18-C1 cells; experiment: HT29-18-C1 growth inhibition (cell counts); type: cell-based, human
Description: Cell culture and treatments. HT29-18-C1, a subclone of the human colon adenocarcinoma cell line HT29, was cultured in Dulbecco's modified Eagle's medium (Gibco-BRL) supplemented with 10% FCS, 2 mM L-glutamine (Eurobio) and […] gentamycin (Gibco-BRL) at 37° C., 10% CO2. Cells were synchronized by serum deprivation for 48 h. They were then released from growth arrest by the addition of 5% fetal calf serum (FCS). HD, prepared in DMSO, was added immediately to the medium, for 24 h and at final concentrations ranging from 0 to 80 μM. In some experiments HD was added 22 h after serum addition for an additional 24 h. In other experiments HD was added to unsynchronised cells. Cells were then washed and cultured in 5% FCS medium and counted or analysed by FACS at different times.
Cell counts and flow cytometric cell cycle analysis. Cell were counted with a hemocytometer. Cell cycle distribution was analysed by flow cytometry. The adherent cells (1.10^6) were trypsinised and fixed in cold 70% ethanol for 4 h. […] The stained cells were analysed on a FACScan cytofluorimeter using the cellFit Software program (Becton Dickinson Immunocytometry Systems).
HT29-18-C1 cells were synchronised in G1 by serum deprivation. […] Cell number was determined every 12 h for a 72 h period using a hemocytometer. […] Serum-treated cells (time 0) were exposed to various HD concentrations and counted after 24 h. […]

[2] = biological target: protein kinase C α (Homo sapiens, UniProt P17252); experiment: protein kinase C α assay; type: biochemical; details: 15 μM ATP
Description: (§1) Kinases activities were assayed in Buffer A or C (unless otherwise stated), at 30° C., at a final ATP concentration of 15 μM. Blank values were subtracted and activities calculated as pmoles of phosphate incorporated for a 10 min. incubation (usually expressed in % of the maximal activity, i.e. without inhibitors). Controls were performed with appropriate dilutions of Me2SO. In some cases phosphorylation of the substrate was assessed by autoradiography after SDS-PAGE. IC50 values were estimated from the dose-response curves. • CDK1/cyclin B was extracted in homogenisation buffer from M phase starfish (Marthasterias glacialis) oocytes and purified by affinity chromatography on p9^CKShs1-Sepharose beads, from which it was eluted by free p9^CKShs1 as described. The kinase activity was assayed in buffer C, with 1 mg histone H1/ml, in the presence of 15 μM [γ-^32P] ATP (3,000 Ci/mmol; 1 mCi/ml) in a final volume of 30 μl. After 10 min. incubation at 30° C., 25 μl aliquots of supernatant were spotted onto 2.5×3 cm pieces of Whatman P81 phosphocellulose paper, and, 20 sec. later, the filters were washed five times (for at least 5 min. each time) in a solution of 10 ml phosphoric acid/liter of water. The wet filters were counted in the presence of 1 ml ACS (Amersham) scintillation fluid. • GSK-3β was either purified from rabbit muscle or expressed in and purified from insect Sf9 cells. […]

[3] = tested on: CDK1/cyclin B; experiment: Cyclin B release from immobilised CDK1/cyclin B, Western blot; type: binding, starfish; details: high HD concentrations, 30 min., beads washed
Description: Proteins bound to p9^CKShs1-Sepharose beads (starfish CDK1/cyclin B) were denatured with 2× Laemmli sample buffer. Samples were run on 10% SDS-polyacrylamide gels. Proteins were transferred from the gel to a 0.1 μm nitrocellulose sheet in a milliblot-SDE system (Millipore) for 30 min. at 2.5 mA/cm^2 in transfer buffer. Subsequently, the filter was blocked with 5% low fat milk in TBST for 1 hour. The filter was then washed with TBST and incubated for 1 hour with the first antibodies (anti-PSTAIRE, 1:2000; anti-cyclin B, 1:1000). After 4 washes (1×20 min., 3×5 min.) with TBST, the nitrocellulose sheet was treated for 1 hour with horseradish peroxidase-coupled secondary antibodies diluted in TBST (1:1000). The filter was then washed 5 times (1×20 min., 4×5 min.) with TBST and analysed by enhanced chemioluminescence with ECL detection reagents and hyperfilm MP.
To investigate the mechanism of HD action, kinetic experiments were performed by varying both ATP levels and HD concentrations (FIG. 6A). […] Enzyme activities were assayed as described under the Experimental Procedures section. Results illustrated by FIG. 6A: 1/v vs 1/ATP primary plot. ATP concentrations in the reaction mixture varied from 0.05 to 0.25 mM, concentration of histone H1 was kept constant at 0.7 mg/ml. […] Apparent inhibition constant (Ki) is indicated by an arrow.

[4] = tested on: brain, SF-295; experiment: Human cancer cell line SF-295 proliferation; type: cell-based
[5] = tested on: GSK-3β like activity in Sf9 cells; experiment: Tau (htau23) phosphorylation in Sf9 cells, Western blotting; type: cell-based; details: 50 μM, 5 hrs, Sf9 cells expressing htau23
Description: Cells and viruses. Sf9 cells (InVitrogen, San Diego, Calif.) were grown at 27° C. in monolayer culture Grace's medium (Gibco BRL, Gaithersburg, Md.) supplemented with 10% fetal bovine serum and 50 μg gentamycin/ml and 2.5 μg amphotericin/ml. BaculoGold was obtained from PharMingen (San Diego, Calif.), pVL1392 from In Vitrogen.
Tau transfection. The gene for htau23, the shortest human tau isoform [27] was excised from the bacterial expression vector pNG2 [28] with XbaI and BamHI, and inserted into the baculovirus transfer vector pVL1392 cut with the same restriction endonucleases. The BaculoGold system was used to construct the tau baculovirus containing vector. The BaculoGold DNA is a modified type of baculovirus containing a lethal deletion. Cotransfection of the BaculoGold DNA with a complementing baculovirus transfer vector rescued the lethal deletion of this virus DNA and reconstituted viable virus particles carrying the htau23 coding sequence. Plasmid DNA used for transfections was purified using QIAGEN cartridges (Hilden, Germany). Sf9 cells grown in monolayers (2×10^6 cells in a 60 mm cell culture dish) were cotransfected with baculovirus DNA (0.5 μg BaculoGold DNA) and with vector derivatives of pVL1392 (2 μg) using a calcium phosphate coprecipitation method. […]

[6] = biological target: T1, erk1 (Homo sapiens, UniProt P27361); experiment: erk1 kinase assay; type: biochemical; details: 15 μM ATP
T1 construct: His
T1 sequence (P27361 whole entry, species assumed): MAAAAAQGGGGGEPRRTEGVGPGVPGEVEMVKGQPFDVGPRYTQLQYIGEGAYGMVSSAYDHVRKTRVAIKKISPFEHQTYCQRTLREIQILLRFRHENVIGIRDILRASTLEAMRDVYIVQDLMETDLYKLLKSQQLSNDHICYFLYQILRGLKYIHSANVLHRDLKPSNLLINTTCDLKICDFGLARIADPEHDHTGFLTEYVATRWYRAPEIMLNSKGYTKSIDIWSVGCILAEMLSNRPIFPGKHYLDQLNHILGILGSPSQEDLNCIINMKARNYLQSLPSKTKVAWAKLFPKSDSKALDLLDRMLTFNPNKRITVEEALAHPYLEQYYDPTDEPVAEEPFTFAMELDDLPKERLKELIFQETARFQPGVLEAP
Description: Blank values were subtracted and activities calculated as pmoles of phosphate incorporated for a 10 min. incubation (usually expressed in % of the maximal activity, i.e. without inhibitors). Controls were performed with appropriate dilutions of Me2SO. In some cases phosphorylation of the substrate was assessed by autoradiography after SDS-PAGE. […] ATP (3,000 Ci/mmol; 1 mCi/ml) in a final volume of 30 μl. After 10 min. incubation at 30° C., 25 μl aliquots of supernatant were spotted onto 2.5×3 cm pieces of Whatman P81 phosphocellulose paper, and, 20 sec. later, the filters were washed five times (for at least 5 min. each time) in a solution of 10 ml phosphoric acid/liter of water. […] ATP (3,000 Ci/mmol; 1 mCi/ml) in a final volume of 30 μl. […] Its activity was assayed in buffer C as described for CDK1/cyclin B. • CDK2/cyclin A, CDK2/cyclin E, CDK3/cyclin E, CDK4/cyclin D1, CDK6/cyclin D2, His-tagged erk1 and erk2, protein kinase C isoforms, the catalytic subunit of cAMP-dependent protein kinase, cGMP-dependent protein kinase, Myosin light chain kinase, casein kinases 1 & 2, ASK-γ (a plant homologue of GSK-3), insulin receptor tyrosine kinase domain (CIRK-41), c-raf, MAPKK, c-jun N terminal kinase (obtained from Promega), c-src kinase and v-abl kinase were assayed as described [15].

[7] = biological target: protein kinase C ζ (Homo sapiens, UniProt Q05513); experiment: protein kinase C ζ assay; type: biochemical; details: 15 μM ATP
Sequence of protein kinase C ζ (Q05513 whole entry): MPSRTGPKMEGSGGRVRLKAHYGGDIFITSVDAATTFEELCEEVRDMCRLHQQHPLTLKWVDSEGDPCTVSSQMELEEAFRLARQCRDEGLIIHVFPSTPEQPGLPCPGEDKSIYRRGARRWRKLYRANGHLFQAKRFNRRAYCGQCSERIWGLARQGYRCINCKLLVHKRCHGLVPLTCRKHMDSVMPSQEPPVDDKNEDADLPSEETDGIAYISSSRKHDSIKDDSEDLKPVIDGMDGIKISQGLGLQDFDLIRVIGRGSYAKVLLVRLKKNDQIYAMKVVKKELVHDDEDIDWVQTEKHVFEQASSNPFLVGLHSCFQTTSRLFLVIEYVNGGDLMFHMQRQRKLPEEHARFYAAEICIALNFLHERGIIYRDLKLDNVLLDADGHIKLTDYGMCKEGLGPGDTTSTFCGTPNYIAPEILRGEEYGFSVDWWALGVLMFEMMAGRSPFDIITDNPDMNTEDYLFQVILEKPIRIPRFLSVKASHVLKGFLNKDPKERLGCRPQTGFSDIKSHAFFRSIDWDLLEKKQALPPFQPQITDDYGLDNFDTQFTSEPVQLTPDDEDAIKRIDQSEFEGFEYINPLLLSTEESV
Description: as §1

[8] = biological target: cdk4/cyclin D1 (Homo sapiens, UniProt P11802); experiment: cdk4/cyclin D1 kinase assay; type: biochemical; details: 15 μM ATP
Sequence of cdk4/cyclin D1 (P11802 whole entry, species assumed): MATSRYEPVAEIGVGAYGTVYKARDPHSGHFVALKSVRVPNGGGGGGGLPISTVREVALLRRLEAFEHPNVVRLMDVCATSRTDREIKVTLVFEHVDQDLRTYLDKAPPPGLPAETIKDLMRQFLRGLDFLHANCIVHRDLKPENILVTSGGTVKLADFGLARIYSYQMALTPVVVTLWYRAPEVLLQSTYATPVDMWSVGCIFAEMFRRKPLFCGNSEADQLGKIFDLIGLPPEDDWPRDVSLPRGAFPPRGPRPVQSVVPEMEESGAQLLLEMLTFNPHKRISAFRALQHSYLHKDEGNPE
Sequence of cdk4/cyclin D1 (P24385 whole entry partner, species assumed): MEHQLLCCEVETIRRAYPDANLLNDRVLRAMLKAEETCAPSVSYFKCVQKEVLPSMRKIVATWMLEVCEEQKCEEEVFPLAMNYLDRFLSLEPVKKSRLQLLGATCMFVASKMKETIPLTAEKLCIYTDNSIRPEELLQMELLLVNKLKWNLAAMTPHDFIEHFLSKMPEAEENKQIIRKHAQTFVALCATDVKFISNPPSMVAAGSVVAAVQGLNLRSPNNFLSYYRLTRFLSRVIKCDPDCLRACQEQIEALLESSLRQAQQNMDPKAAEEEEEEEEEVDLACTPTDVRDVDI
Description: as §1

[9] = biological target: cdk3/cyclin E (Homo sapiens, UniProt Q00526); experiment: cdk3/cyclin E kinase assay; type: biochemical; details: 15 μM ATP
Sequence of cdk3/cyclin E (Q00526 whole entry, species assumed): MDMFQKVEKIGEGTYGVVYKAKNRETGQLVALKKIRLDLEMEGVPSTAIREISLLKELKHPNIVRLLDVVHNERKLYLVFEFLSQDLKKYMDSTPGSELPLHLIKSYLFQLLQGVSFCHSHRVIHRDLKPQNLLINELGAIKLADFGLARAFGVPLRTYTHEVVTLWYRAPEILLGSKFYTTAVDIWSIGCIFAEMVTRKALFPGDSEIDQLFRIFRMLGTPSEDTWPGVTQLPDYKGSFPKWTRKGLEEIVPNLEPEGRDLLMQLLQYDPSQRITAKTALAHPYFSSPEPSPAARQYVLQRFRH
Sequence of cdk3/cyclin E (P24864 whole entry partner, species assumed): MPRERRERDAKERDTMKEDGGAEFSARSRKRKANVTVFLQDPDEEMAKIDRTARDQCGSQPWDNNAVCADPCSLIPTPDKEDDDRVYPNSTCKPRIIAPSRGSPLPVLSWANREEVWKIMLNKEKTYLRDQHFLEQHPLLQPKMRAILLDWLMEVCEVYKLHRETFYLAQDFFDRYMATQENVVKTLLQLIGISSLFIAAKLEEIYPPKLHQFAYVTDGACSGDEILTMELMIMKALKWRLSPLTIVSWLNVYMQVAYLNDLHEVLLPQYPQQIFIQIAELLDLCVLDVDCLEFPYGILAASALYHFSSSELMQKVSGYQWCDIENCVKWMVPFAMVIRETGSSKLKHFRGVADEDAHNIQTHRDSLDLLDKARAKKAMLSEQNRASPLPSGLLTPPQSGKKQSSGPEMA
Description: as §1

NC1=NC(=O)C(=C2CCNC(=O)c3[nH]c(Br)cc32)N1 [hymenialdisine, 4-(2-amino-4-oxo-2-imidazolin-5-ylidene)-2-bromo-4,5,6,7-tetrahydropyrrolo (2,3-c) azepine-8-one]
growth of HT29-18-C1 (cell number) ([1]; 10 μM for 24 h, followed over 72 h): strong growth inhibition
IC50 ([1]; Homo sapiens, serum-treated cells counted after 24 h): 5000 nM
IC50 [2]: 700 nM
displacement of cyclin B from CDK1 [3]: does not act by displacing cyclin B from CDK1
IC50 [4]: 38.9 µg/mL (≈ 120 µM)
AT100 signal (tau phosphorylated at T212 and S214) [5]: disappearance of AT100 signal
IC50 [6]: 470 nM
IC50 [7]: 60000 nM
IC50 [8]: 600 nM
IC50 [9]: 100 nM

Reference: patent US7098204B2 (C.N.R.S., priority 1999, dated 2006)
